# Measurements taken from patent publication US9861094B2, “Composition and method for tissue preservation and embalming” (OGF, priority 2008, dated 2018).
# Assays:
# bodies of the deceased = assay: embalming tests for presentation of the deceased (arterial and cavity injection); parameters: species or system human; conditions: 0.6% bronopol; bodies with no particular abnormality
# Description: For arterial injection, the following compositions were prepared and tested (these compositions are prepared for 1 liter of concentrated solution to which 5 liters of water are added):
# This operation uses the method generally used for embalming procedures, namely injection and drainage, said drainage being generally performed in the region of the right heart.
# Injection is carried out through the femoral, carotid or axillary arteries.
# The amount of fluid injected is approximately 6 liters, but this amount may vary depending on the state of the deceased and the diagnosis made by the embalmer, for example the need for more drainage.
# For cavity injection, the following compositions were prepared and tested (these compositions are prepared for 500 ml and used as they are):
# This operation uses the method widely practised in embalming procedures, that is, gas and fluid tapping in the region of the thoracic and abdominal cavities, and injection of the composition according to the invention into each of the cavities so that said composition is diffused optimally throughout the cavities concerned.
# Still using an identical base of glycerine, ethanol or methanol, tests were carried out using the compositions described in the examples above (compositions (1), (2), (3) and (3a) for arterial injection and compositions (4) and (5) for cavity injection).
# bodies for dissection = assay: embalming of bodies for dissection (injection alone, no tapping); parameters: species or system human; conditions: bronopol 1% by weight, 4 liters injected; dissections 14 and 16 days after death
# Description: In this type of procedure, no liquid tapping or cavity injection is carried out.
# 1. Tests were also carried out within the faculty of medicine in the context of the preservation of bodies for dissection.
# The results observed are very interesting, knowing that these tests were carried out by injection alone with no tapping.
# To obtain optimum preservation of the body, a bronopol concentration of 1% by weight was used for a total injected quantity of 4 liters.
# For example, the above-mentioned composition (2) was used on a subject of average build (a person who had been dead for eight days).
# Before the test was performed, very marked lividities, large green abdominal marks and sunken eyes (the body had been frozen) were observed.
# The product was then injected through the carotid artery in one pass (one times 3.6 liters of water and 400 ml of the above-mentioned composition (2)), for better product dilution (injection total=4 liters) (bronopol concentration=1%).
# The subject was moved alternately between the cold storage room (7° C.) and the autopsy table (25° C.).
# [1] = system: bacteria in the body fluid; assay: bacteriological analyses of body fluid after embalming
# Excerpt: The results obtained according to the bronopol concentration were as follows:
compound,measurement,setting,value
"O=[N+]([O-])C(Br)(CO)CO [Bronopol, 2-bromo-2-nitropropane-1,3-diol]",overall result of embalming tests,bodies of the deceased,satisfactory results
same,odour,bodies for dissection,lack of odour
same,state of preservation of the body and tissue suppleness,bodies for dissection,very good results
same,Presence of bacteria in the body fluid,[1]; Bronopol concentration 0.90%,1 out of 2 cases with bacteria
same,Presence of bacteria in the body fluid,[1]; Bronopol concentration ≦0.80%,7 out of 8 cases with bacteria
same,Presence of bacteria in the body fluid,[1]; Bronopol concentration ≧1.2%,1 out of 3 cases with bacteria
